Results from the supplement of paper PMC6125532.
Values after ≈ are worked out from the molar mass of the structure shown.

Assays:
[1] = tested on: Mycobacterium tuberculosis CRY-4; CRY-30
Description: (§1)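 Resazurin microtiter assay (REMA) MICs of anti-TB drugs against 19 EQA Mycobacterium tuberculosis strains (clinical or proficiency isolates plus H37Rv). Drugs were tested in doubling dilutions. Each value is the consensus of two measurements; where they disagreed the lower value was taken.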

[2] = tested on: Mycobacterium tuberculosis CRY-16
Description: as §1

[3] = tested on: Mycobacterium tuberculosis CRY-27
Description: as §1

[4] = tested on: Mycobacterium tuberculosis CRY-23
Description: as §1

[5] = tested on: Mycobacterium tuberculosis CRY-3; CRY-11
Description: as §1

[6] = tested on: Mycobacterium tuberculosis CRY-19
Description: as §1

[7] = tested on: Mycobacterium tuberculosis CRY-12; CRY-24
Description: as §1

[8] = tested on: Mycobacterium tuberculosis CRY-1; CRY-17
Description: as §1

[9] = tested on: Mycobacterium tuberculosis CRY-14
Description: as §1

[10] = tested on: Mycobacterium tuberculosis CRY-9; CRY-22
Description: as §1

[11] = tested on: Mycobacterium tuberculosis CRY-26
Description: as §1

[12] = tested on: Mycobacterium tuberculosis CRY-15; CRY-21
Description: as §1

[13] = tested on: Mycobacterium tuberculosis CRY-6; CRY-29
Description: as §1

[14] = tested on: Mycobacterium tuberculosis CRY-20
Description: as §1

[15] = tested on: Mycobacterium tuberculosis CRY-28
Description: as §1

[16] = tested on: Mycobacterium tuberculosis CRY-5; CRY-10
Description: as §1

[17] = tested on: Mycobacterium tuberculosis CRY-7; CRY-18
Description: as §1

[18] = tested on: Mycobacterium tuberculosis CRY-2; CRY-25
Description: as §1

[19] = tested on: Mycobacterium tuberculosis CRY-8; CRY-13
Description: as §1

| SMILES | MIC (REMA) [1] | MIC (REMA) [2] | MIC (REMA) [3] | MIC (REMA) [4] | MIC (REMA) [5] | MIC (REMA) [6] | MIC (REMA) [7] | MIC (REMA) [8] | MIC (REMA) [9] | MIC (REMA) [10] | MIC (REMA) [11] | MIC (REMA) [12] | MIC (REMA) [13] | MIC (REMA) [14] | MIC (REMA) [15] | MIC (REMA) [16] | MIC (REMA) [17] | MIC (REMA) [18] | MIC (REMA) [19] |
| --- | --- | --- | --- | --- | --- | --- | --- | --- | --- | --- | --- | --- | --- | --- | --- | --- | --- | --- | --- |
| C[C@H]1COc2c(N3CCN(C)CC3)c(F)cc3c(=O)c(C(=O)O)cn1c23 [Levofloxacin] | 0.25 mg/L (≈ 0.692 µM) | 0.25 mg/L (≈ 0.692 µM) | 0.25 mg/L (≈ 0.692 µM) | 0.06 mg/L (≈ 0.166 µM) | 0.25 mg/L (≈ 0.692 µM) | 0.125 mg/L (≈ 0.346 µM) | 0.25 mg/L (≈ 0.692 µM) | 0.125 mg/L (≈ 0.346 µM) | 0.06 mg/L (≈ 0.166 µM) | 0.125 mg/L (≈ 0.346 µM) | 0.25 mg/L (≈ 0.692 µM) | 0.125 mg/L (≈ 0.346 µM) | 0.125 mg/L (≈ 0.346 µM) | 0.125 mg/L (≈ 0.346 µM) | 0.06 mg/L (≈ 0.166 µM) | – | – | – | – |
| COc1nc2ccc(Br)cc2cc1[C@@H](c1ccccc1)[C@@](O)(CCN(C)C)c1cccc2ccccc12 [Bedaquiline] | 0.015 mg/L (≈ 0.027 µM) | 0.03 mg/L (≈ 0.054 µM) | 0.06 mg/L (≈ 0.108 µM) | 0.008 mg/L (≈ 0.0144 µM) | 0.12 mg/L (≈ 0.216 µM) | 0.015 mg/L (≈ 0.027 µM) | 0.5 mg/L (≈ 0.9 µM) | 0.06 mg/L (≈ 0.108 µM) | ≤ 0.004 mg/L | 0.25 mg/L (≈ 0.45 µM) | 0.03 mg/L (≈ 0.054 µM) | 2 mg/L (≈ 3.6 µM) | 0.03 mg/L (≈ 0.054 µM) | 0.03 mg/L (≈ 0.054 µM) | 0.015 mg/L (≈ 0.027 µM) | 0.015 mg/L (≈ 0.027 µM) | 0.06 mg/L (≈ 0.108 µM) | 0.06 mg/L (≈ 0.108 µM) | 0.06 mg/L (≈ 0.108 µM) |
| CC(C)/N=c1\cc2n(-c3ccc(Cl)cc3)c3ccccc3nc-2cc1Nc1ccc(Cl)cc1 [Clofazimine] | 0.03 mg/L (≈ 0.0634 µM) | 0.12 mg/L (≈ 0.253 µM) | – | 0.008 mg/L (≈ 0.0169 µM) | 0.12 mg/L (≈ 0.253 µM) | – | – | – | 0.03 mg/L (≈ 0.0634 µM) | 1 mg/L (≈ 2.11 µM) | 0.06 mg/L (≈ 0.127 µM) | 1 mg/L (≈ 2.11 µM) | 0.06 mg/L (≈ 0.127 µM) | – | – | 0.06 mg/L (≈ 0.127 µM) | – | 0.12 mg/L (≈ 0.253 µM) | 0.06 mg/L (≈ 0.127 µM) |
| CO[C@H]1/C=C/O[C@@]2(C)Oc3c(C)c(O)c4c(c3C2=O)C2=NC3(CCN(CC(C)C)CC3)NC2=C(NC(=O)/C(C)=C\C=C\[C@H](C)[C@H](O)[C@@H](C)[C@@H](O)[C@@H](C)[C@H](OC(C)=O)[C@@H]1C)C4=O [Rifabutin] | ≤ 0.004 mg/L | ≤ 0.004 mg/L | > 2 mg/L | ≤ 0.004 mg/L | ≤ 0.004 mg/L | ≤ 0.004 mg/L | ≤ 0.004 mg/L | > 2 mg/L | 0.125 mg/L (≈ 0.148 µM) | ≤ 0.004 mg/L | ≤ 0.004 mg/L | 0.008 mg/L (≈ 0.00944 µM) | ≤ 0.004 mg/L | ≤ 0.004 mg/L | 1 mg/L (≈ 1.18 µM) | 1 mg/L (≈ 1.18 µM) | 2 mg/L (≈ 2.36 µM) | ≤ 0.004 mg/L | 2 mg/L (≈ 2.36 µM) |
| C[C@]1(COc2ccc(N3CCC(Oc4ccc(OC(F)(F)F)cc4)CC3)cc2)Cn2cc([N+](=O)[O-])nc2O1 [Delamanid] | 0.03 mg/L (≈ 0.0561 µM) | 0.03 mg/L (≈ 0.0561 µM) | 0.25 mg/L (≈ 0.468 µM) | 0.03 mg/L (≈ 0.0561 µM) | 0.06 mg/L (≈ 0.112 µM) | 0.015 mg/L (≈ 0.0281 µM) | 0.03 mg/L (≈ 0.0561 µM) | > 2 mg/L | 0.015 mg/L (≈ 0.0281 µM) | 2 mg/L (≈ 3.74 µM) | 0.015 mg/L (≈ 0.0281 µM) | 0.125 mg/L (≈ 0.234 µM) | 0.015 mg/L (≈ 0.0281 µM) | 0.015 mg/L (≈ 0.0281 µM) | 0.008 mg/L (≈ 0.015 µM) | 0.125 mg/L (≈ 0.234 µM) | 0.06 mg/L (≈ 0.112 µM) | 0.03 mg/L (≈ 0.0561 µM) | 0.03 mg/L (≈ 0.0561 µM) |
| NNC(=O)c1ccncc1 [Isoniazid] | – | ≤ 0.015 mg/L | – | > 8 mg/L | 0.06 mg/L (≈ 0.438 µM) | 0.125 mg/L (≈ 0.911 µM) | – | > 8 mg/L | > 8 mg/L | 0.03 mg/L (≈ 0.219 µM) | 0.03 mg/L (≈ 0.219 µM) | – | > 8 mg/L | – | > 8 mg/L | > 8 mg/L | > 8 mg/L | – | > 8 mg/L |
| NC[C@H]1O[C@H](O[C@H]2[C@H](O)[C@@H](O[C@H]3O[C@H](CO)[C@@H](O)[C@H](N)[C@H]3O)[C@H](N)C[C@@H]2N)[C@H](O)[C@@H](O)[C@@H]1O [Kanamycin] | 2 mg/L (≈ 4.13 µM) | 1 mg/L (≈ 2.06 µM) | 2 mg/L (≈ 4.13 µM) | 0.5 mg/L (≈ 1.03 µM) | 2 mg/L (≈ 4.13 µM) | 0.5 mg/L (≈ 1.03 µM) | > 32 mg/L | 1 mg/L (≈ 2.06 µM) | > 32 mg/L | 1 mg/L (≈ 2.06 µM) | 1 mg/L (≈ 2.06 µM) | 2 mg/L (≈ 4.13 µM) | 1 mg/L (≈ 2.06 µM) | 1 mg/L (≈ 2.06 µM) | 0.5 mg/L (≈ 1.03 µM) | 0.5 mg/L (≈ 1.03 µM) | > 32 mg/L | 1 mg/L (≈ 2.06 µM) | 2 mg/L (≈ 4.13 µM) |
| COc1c(N2C[C@@H]3CCCN[C@@H]3C2)c(F)cc2c(=O)c(C(=O)O)cn(C3CC3)c12 [Moxifloxacin] | 0.06 mg/L (≈ 0.149 µM) | 0.03 mg/L (≈ 0.0747 µM) | 0.06 mg/L (≈ 0.149 µM) | 0.03 mg/L (≈ 0.0747 µM) | 0.03 mg/L (≈ 0.0747 µM) | 0.04 mg/L (≈ 0.0996 µM) | 0.06 mg/L (≈ 0.149 µM) | 0.03 mg/L (≈ 0.0747 µM) | ≤ 0.008 mg/L | 0.015 mg/L (≈ 0.0374 µM) | 0.03 mg/L (≈ 0.0747 µM) | 0.06 mg/L (≈ 0.149 µM) | 0.015 mg/L (≈ 0.0374 µM) | 0.03 mg/L (≈ 0.0747 µM) | 0.06 mg/L (≈ 0.149 µM) | 8 mg/L (≈ 19.9 µM) | 0.25 mg/L (≈ 0.623 µM) | 0.25 mg/L (≈ 0.623 µM) | 0.5 mg/L (≈ 1.25 µM) |
| NCC[C@H](O)C(=O)N[C@@H]1C[C@H](N)[C@@H](O[C@H]2O[C@H](CN)[C@@H](O)[C@H](O)[C@H]2O)[C@H](O)[C@H]1O[C@H]1O[C@H](CO)[C@@H](O)[C@H](N)[C@H]1O [Amikacin] | – | – | – | 0.125 mg/L (≈ 0.213 µM) | – | 0.25 mg/L (≈ 0.427 µM) | > 16 mg/L | – | > 16 mg/L | 0.25 mg/L (≈ 0.427 µM) | – | – | – | – | 0.25 mg/L (≈ 0.427 µM) | 0.25 mg/L (≈ 0.427 µM) | > 16 mg/L | 0.25 mg/L (≈ 0.427 µM) | – |
| CO[C@H]1/C=C/O[C@@]2(C)Oc3c(C)c(O)c4c(O)c(c(/C=N/N5CCN(C)CC5)c(O)c4c3C2=O)NC(=O)/C(C)=C\C=C\[C@H](C)[C@H](O)[C@@H](C)[C@@H](O)[C@@H](C)[C@H](OC(C)=O)[C@@H]1C [Rifampicin] | – | – | > 4 mg/L | – | – | 0.03 mg/L (≈ 0.0365 µM) | 0.015 mg/L (≈ 0.0182 µM) | > 4 mg/L | 2 mg/L (≈ 2.43 µM) | – | 0.015 mg/L (≈ 0.0182 µM) | 0.03 mg/L (≈ 0.0365 µM) | – | 0.06 mg/L (≈ 0.0729 µM) | > 4 mg/L | > 4 mg/L | > 4 mg/L | – | > 4 mg/L |
| CC[C@@H](CO)NCCN[C@@H](CC)CO [Ethambutol] | – | 4 mg/L (≈ 19.6 µM) | 1 mg/L (≈ 4.89 µM) | 1 mg/L (≈ 4.89 µM) | 1 mg/L (≈ 4.89 µM) | 0.5 mg/L (≈ 2.45 µM) | 1 mg/L (≈ 4.89 µM) | 4 mg/L (≈ 19.6 µM) | 4 mg/L (≈ 19.6 µM) | – | 0.5 mg/L (≈ 2.45 µM) | 1 mg/L (≈ 4.89 µM) | 1 mg/L (≈ 4.89 µM) | – | 0.5 mg/L (≈ 2.45 µM) | – | – | 1 mg/L (≈ 4.89 µM) | – |
